Source: patent US12110287B2, “Heterocyclic derivatives as Nav1.7 and Nav1.8 blockers” (RaQualia Pharma Inc., priority 2018, dated 2024)

Molecular target: Nav1.7 (Homo sapiens, UniProt Q15858)
Test: EFS-FRET assay
Format: cell-based
Design: expressed in transfected cells; host or cells: CHO (Chinese hamster ovary) cells
Conditions: CHO cells expressing human Nav1.7 channels, read-out: IC50 against Nav1.7
Description: This screen is used to determine the effects of compounds on human Nav1.7 channels, utilizing electrical field stimulation (EFS) system in 96-well plate format on FDSS (Hamamatsu Photonics) platform. The changes of membrane potential are monitored with FRET dye pair, DiSBAC2(3) and PTS18.
CHO (Chinese hamster ovary) cells expressing human Nav1.7 channels are grown in T225 flasks, in a 5% CO2 humidified incubator to about 80% confluence. Media composition consists of HAM/F12 with Glutamax I, 10% FCS, 100 units/mF penicillin and 100 microgram/mF hygromycin.
• Seed each cell lines (1×10^5 cells/well) into 96-well plates prior to experimentation. • Incubate at 37° C. in 5% CO2 for 24 hours. • Wash each well with assay buffer (140 mM NaCl, 4.5 mM KCl, 10 mM D-Glucose, 2 mM CaCl2, 1 mM MgCl2, 10 mM HEPES, pH 7.4 adjusted with NaOH) twice. • Add 1st loading solution containing 10 microM PTS18 and 0.06% Pluronic F-127 in assay buffer. • Incubate the plate at rt in dark for 1 hour. • Remove 1st loading solution and add 2nd loading solution containing 12.5 microM DiSBAC2(3), 1.25 mM Xylene Fast Yellow and 0.0075% Pluronic F-127 in assay buffer. • Place the plate under the dark at rt for 25 minutes. • Add compound solutions into the assay plate. • Set the assay plate in FDSS and place an EFS device on the plate. • Measure EFS-induced fluorescent response by FDSS.
The data are analyzed and reported as normalized ratios of intensities measured at […]. The process of calculating these ratios is performed as follows:
This analysis is performed using a computerized specific program designed for FDSS generated data. Fluorescence ratio values are plotted using XLfit to determine an IC50 value for each compound.

Sequence of Nav1.7 (Q15858 whole entry): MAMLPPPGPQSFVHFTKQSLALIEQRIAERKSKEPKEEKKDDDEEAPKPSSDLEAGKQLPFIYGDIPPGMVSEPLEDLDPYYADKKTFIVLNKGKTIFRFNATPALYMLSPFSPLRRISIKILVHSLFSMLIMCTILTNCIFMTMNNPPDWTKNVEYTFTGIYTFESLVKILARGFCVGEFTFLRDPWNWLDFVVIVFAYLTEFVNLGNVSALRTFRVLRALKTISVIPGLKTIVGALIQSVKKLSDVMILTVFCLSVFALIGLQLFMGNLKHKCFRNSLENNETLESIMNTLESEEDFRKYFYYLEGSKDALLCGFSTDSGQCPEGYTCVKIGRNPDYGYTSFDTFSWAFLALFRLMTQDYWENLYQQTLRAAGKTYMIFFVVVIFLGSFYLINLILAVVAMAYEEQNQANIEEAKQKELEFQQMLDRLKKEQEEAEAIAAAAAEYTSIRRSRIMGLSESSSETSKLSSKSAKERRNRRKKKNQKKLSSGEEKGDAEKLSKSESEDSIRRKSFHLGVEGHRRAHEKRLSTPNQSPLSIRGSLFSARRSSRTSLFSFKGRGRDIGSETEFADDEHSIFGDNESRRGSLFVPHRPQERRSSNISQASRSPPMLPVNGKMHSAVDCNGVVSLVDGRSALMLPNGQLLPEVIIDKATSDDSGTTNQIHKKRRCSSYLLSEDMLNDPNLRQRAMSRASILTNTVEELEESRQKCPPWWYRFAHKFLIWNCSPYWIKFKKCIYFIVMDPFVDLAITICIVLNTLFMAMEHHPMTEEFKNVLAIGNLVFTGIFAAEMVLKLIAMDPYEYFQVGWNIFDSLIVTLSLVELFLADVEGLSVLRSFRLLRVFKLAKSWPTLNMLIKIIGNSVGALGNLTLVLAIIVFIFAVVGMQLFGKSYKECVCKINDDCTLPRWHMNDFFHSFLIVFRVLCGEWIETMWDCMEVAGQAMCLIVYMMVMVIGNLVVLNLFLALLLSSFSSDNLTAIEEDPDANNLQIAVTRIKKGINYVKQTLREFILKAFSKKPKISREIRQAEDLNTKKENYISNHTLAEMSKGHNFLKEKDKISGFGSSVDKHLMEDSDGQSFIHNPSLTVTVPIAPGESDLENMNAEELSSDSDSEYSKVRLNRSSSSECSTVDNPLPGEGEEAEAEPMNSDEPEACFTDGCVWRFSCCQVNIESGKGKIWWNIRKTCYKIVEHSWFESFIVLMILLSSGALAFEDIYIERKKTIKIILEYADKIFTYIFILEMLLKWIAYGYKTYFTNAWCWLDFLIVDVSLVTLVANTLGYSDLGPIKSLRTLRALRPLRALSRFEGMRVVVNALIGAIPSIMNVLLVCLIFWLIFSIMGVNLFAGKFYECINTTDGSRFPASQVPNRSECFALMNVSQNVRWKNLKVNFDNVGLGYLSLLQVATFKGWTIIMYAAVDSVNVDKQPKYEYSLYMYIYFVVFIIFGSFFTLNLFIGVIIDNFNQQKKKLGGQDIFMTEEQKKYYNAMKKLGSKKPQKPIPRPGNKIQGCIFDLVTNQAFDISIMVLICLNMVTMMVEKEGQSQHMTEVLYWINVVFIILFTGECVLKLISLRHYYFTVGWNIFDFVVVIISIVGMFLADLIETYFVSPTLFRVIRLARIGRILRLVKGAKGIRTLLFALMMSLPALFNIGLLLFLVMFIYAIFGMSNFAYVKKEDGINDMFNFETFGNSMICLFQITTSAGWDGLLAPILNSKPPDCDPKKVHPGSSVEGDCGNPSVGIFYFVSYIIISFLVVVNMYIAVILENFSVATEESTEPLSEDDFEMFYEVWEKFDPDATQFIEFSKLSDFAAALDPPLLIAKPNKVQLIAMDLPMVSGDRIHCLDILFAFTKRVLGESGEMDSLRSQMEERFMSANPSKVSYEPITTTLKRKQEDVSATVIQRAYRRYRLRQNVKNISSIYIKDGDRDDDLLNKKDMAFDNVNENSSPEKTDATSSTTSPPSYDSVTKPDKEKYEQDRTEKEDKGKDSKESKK

Row | IC50 [nM] | SMILES
1 | < 500 | CC(=O)Nc1cc(C(=O)N[C@@H]2CCN(c3ncc(C(F)(F)F)cc3Cl)C2)ccn1 [Example 2]
2 | < 500 | CC(=O)Nc1cc(C(=O)N[C@@H]2CCCN(c3ncc(C(F)(F)F)cc3Cl)C2)ccn1 [Example 5]
3 | < 500 | CCC(=O)Nc1cc(C(=O)N[C@@H]2CCCN(c3ncc(C(F)(F)F)cc3Cl)C2)ccn1 [Example 6]
4 | < 500 | CC(=O)Nc1cc(C(=O)NC2CN(c3ncc(C(F)(F)F)cc3Cl)C2)ccn1 [Example 8]
5 | < 500 | CC(C)C(=O)Nc1cc(C(=O)N[C@@H]2CCN(c3ncc(C(F)(F)F)cc3Cl)C2)ccn1 [Example 10]
6 | < 500 | CCC(=O)Nc1cc(C(=O)N[C@@H]2CCN(c3ncc(C(F)(F)F)cc3Cl)C2)cc(C)n1 [Example 11]
7 | < 500 | CCC(=O)Nc1cc(C(=O)N[C@@H]2CCN(c3ccc(C(F)(F)F)cn3)C2)ccn1 [Example 16]
8 | < 500 | CCC(=O)Nc1nccc(C(=O)N[C@@H]2CCN(c3ncc(C(F)(F)F)cc3Cl)C2)n1 [Example 20]
9 | < 500 | O=C(N[C@@H]1CCN(c2ncc(C(F)(F)F)cc2Cl)C1)c1ccnc(NC(=O)C2CC2)n1 [Example 21]
10 | < 500 | CC(C)C(=O)Nc1nccc(C(=O)N[C@@H]2CCN(c3ncc(C(F)(F)F)cc3Cl)C2)n1 [Example 22]
11 | < 500 | O=C(N[C@@H]1CCN(c2ncc(C(F)(F)F)cc2Cl)C1)c1ccnc(NC(=O)C2CCC2)n1 [Example 23]
12 | < 500 | CC(=O)Nc1nccc(C(=O)N[C@@H]2CCCN(c3ncc(C(F)(F)F)cc3Cl)C2)n1 [Example 24]
13 | < 500 | CCC(=O)Nc1nccc(C(=O)N[C@@H]2CCCN(c3ncc(C(F)(F)F)cc3Cl)C2)n1 [Example 25]
14 | < 500 | O=C(N[C@@H]1CCCN(c2ncc(C(F)(F)F)cc2Cl)C1)c1ccnc(NC(=O)C2CC2)n1 [Example 26]
15 | < 500 | CC(C)C(=O)Nc1nccc(C(=O)N[C@@H]2CCCN(c3ncc(C(F)(F)F)cc3Cl)C2)n1 [Example 27]
16 | < 500 | O=C(N[C@@H]1CCCN(c2ncc(C(F)(F)F)cc2Cl)C1)c1ccnc(NC(=O)C2CCC2)n1 [Example 28]
17 | < 500 | COc1cc(C(F)(F)F)cnc1N1CC[C@@H](NC(=O)c2ccnc(NC(C)=O)c2)C1 [Example 37]
18 | < 500 | CCC(=O)Nc1cc(C(=O)N[C@@H]2CCN(c3ncc(C(F)(F)F)cc3OC)C2)ccn1 [Example 38]
19 | < 500 | COc1cc(C(F)(F)F)cnc1N1CC[C@@H](NC(=O)c2cc(C)nc(NC(C)=O)c2)C1 [Example 39]
20 | < 500 | CC(=O)Nc1cc(C(=O)NC2CCC(C)N(c3ncc(C(F)(F)F)cc3Cl)C2)ccn1 (centres unmarked) [Example 41]
21 | < 500 | CCC(=O)Nc1cc(C(=O)NC2CCC(C)N(c3ncc(C(F)(F)F)cc3Cl)C2)ccn1 (centres unmarked) [Example 42]
22 | < 500 | CC(=O)Nc1cc(C(=O)N[C@@H]2CCN(c3ncc(C(F)(F)F)cc3C)C2)ccn1 [Example 46]

Row | IC50 [nM] | SMILES
23 | < 500 | Cc1cc(C(F)(F)F)cnc1N1CC[C@@H](NC(=O)c2ccnc(NC(=O)C3CC3)c2)C1 [Example 47]
24 | < 500 | CCC(=O)Nc1cc(C(=O)N[C@@H]2CCN(c3ncc(C(F)(F)F)cc3Cl)C2)ccn1 [Example 48]
25 | < 500 | CC(=O)Nc1cc(C(=O)N[C@@H]2CCN(c3ncc(C(F)(F)F)cc3Cl)C2)cc(C)n1 [Example 49]
26 | < 500 | CC(C)C(=O)Nc1cc(C(=O)NC2CN(c3ncc(C(F)(F)F)cc3Cl)C2)ccn1 [Example 50]
27 | < 500 | CC(=O)Nc1cc(C(=O)NC2CN(c3ncc(C(F)(F)F)cc3Cl)C2)cc(C)n1 [Example 51]
28 | < 500 | Cc1cc(C(=O)NC2CN(c3ncc(C(F)(F)F)cc3Cl)C2)cc(NC(=O)C(C)C)n1 [Example 52]
29 | < 500 | Cc1cc(C(=O)NC2CN(c3ncc(C(F)(F)F)cc3Cl)C2)nc(NC(=O)C2CC2)n1 [Example 53]
30 | < 500 | O=C(N[C@@H]1CCCN(c2ccc(C(F)(F)F)cc2Cl)C1)c1ccnc(NC(=O)C2CC2)c1 [Example 55]
31 | < 500 | Cc1cc(C(=O)N[C@@H]2CCCN(c3ccc(C(F)(F)F)cc3Cl)C2)cc(NC(=O)C2CC2)n1 [Example 56]
32 | < 500 | CC(C)C(=O)Nc1cc(C(=O)N[C@@H]2CCCN(c3ccc(C(F)(F)F)cc3Cl)C2)ccn1 [Example 57]
33 | < 500 | Cc1cc(C(=O)N[C@@H]2CCCN(c3ccc(C(F)(F)F)cc3Cl)C2)cc(NC(=O)C(C)C)n1 [Example 58]
34 | < 500 | O=C(N[C@@H]1CCCN(c2ncc(C(F)(F)F)cc2Br)C1)c1ccnc(NC(=O)C2CC2)c1 [Example 59]
35 | < 500 | Cc1cc(C(=O)N[C@@H]2CCCN(c3ncc(C(F)(F)F)cc3Br)C2)cc(NC(=O)C2CC2)n1 [Example 60]
36 | < 500 | Cc1cc(C(=O)N[C@@H]2CCCN(c3ncc(C(F)(F)F)cc3C)C2)cc(NC(=O)C(C)C)n1 [Example 73]
37 | < 500 | O=C(N[C@@H]1CCN(c2ccc(C(F)(F)F)cc2Cl)C1)c1ccnc(NC(=O)C2CC2)c1 [Example 77]
38 | < 500 | Cc1cc(C(=O)N[C@@H]2CCN(c3ncc(C(F)(F)F)cc3Cl)C2)cc(NC(=O)C2CC2)n1 [Example 78]
39 | < 500 | CC(C)C(=O)Nc1cc(C(=O)N[C@@H]2CCN(c3ccc(C(F)(F)F)cc3Cl)C2)ccn1 [Example 79]
40 | < 500 | Cc1cc(C(=O)N[C@@H]2CCN(c3ccc(C(F)(F)F)cc3Cl)C2)cc(NC(=O)C(C)C)n1 [Example 80]
41 | < 500 | COc1cc(C(F)(F)F)cnc1N1CC[C@@H](NC(=O)c2ccnc(NC(=O)C3CC3)c2)C1 [Example 81]
42 | < 500 | COc1cc(C(F)(F)F)cnc1N1CC[C@@H](NC(=O)c2cc(C)nc(NC(=O)C3CC3)c2)C1 [Example 82]
43 | < 500 | COc1cc(C(F)(F)F)cnc1N1CC[C@@H](NC(=O)c2ccnc(NC(=O)C(C)C)c2)C1 [Example 83]
44 | < 500 | COc1cc(C(F)(F)F)cnc1N1CC[C@@H](NC(=O)c2cc(C)nc(NC(=O)C(C)C)c2)C1 [Example 84]

Row | IC50 [nM] | SMILES
45 | < 500 | CCCC(=O)Nc1cc(C(=O)N[C@@H]2CCN(c3ncc(C(F)(F)F)cc3OC)C2)ccn1 [Example 88]
46 | < 500 | O=C(N[C@@H]1CCCN(c2ncc(OCC(F)(F)F)cc2Cl)C1)c1ccnc(NC(=O)C2CC2)c1 [Example 92]
47 | < 500 | O=C(N[C@@H]1CCN(c2ncc(OCC(F)(F)F)cc2Cl)C1)c1ccnc(NC(=O)C2CC2)c1 [Example 93]
48 | < 500 | CCC(=O)Nc1cc(C(=O)N[C@@H]2CCCN(c3ncc(OCC(F)(F)F)cc3Cl)C2)ccn1 [Example 95]
49 | < 500 | CCC(=O)Nc1cc(C(=O)N[C@@H]2CCN(c3ncc(OCC(F)(F)F)cc3Cl)C2)ccn1 [Example 96]
50 | < 500 | O=C(N[C@@H]1CCCN(c2ncc(OCc3ccc(F)cc3)cc2Cl)C1)c1ccnc(NC(=O)C2CC2)c1 [Example 99]
51 | < 500 | Cc1cc(C(=O)N[C@@H]2CCN(c3ncc(C(F)(F)F)cc3Cl)C2)cc(NC(=O)C(C)C)n1 [Example 104]
52 | < 500 | CCC(=O)Nc1cc(C(=O)N[C@H]2CN(c3ncc(C(F)(F)F)cc3Cl)CC23CC3)cc(C)n1 [Example 107]
53 | < 500 | CC(C)C(=O)Nc1cc(C(=O)N[C@H]2CN(c3ncc(C(F)(F)F)cc3Cl)CC23CC3)ccn1 [Example 109]
54 | < 500 | Cc1cc(C(=O)N[C@@H]2CCCN(c3ncc(C(F)(F)F)cc3Cl)C2)nc(NC(=O)C2CC2)n1 [Example 114]
55 | < 500 | CCC(=O)Nc1cc(C(=O)N[C@H]2CN(c3ncc(C(F)(F)F)cc3Cl)CC23CC3)ccn1 [Example 116]
56 | < 500 | CC(=O)Nc1cc(C(=O)N[C@H]2CN(c3ncc(C(F)(F)F)cc3Cl)CC23CC3)cc(C)n1 [Example 117]
57 | < 500 | Cc1cc(C(=O)N[C@H]2CN(c3ncc(C(F)(F)F)cc3Cl)CC23CC3)cc(NC(=O)C(C)C)n1 [Example 118]
58 | < 500 | O=C(N[C@H]1CN(c2ncc(C(F)(F)F)cc2Cl)CC12CC2)c1ccnc(NC(=O)C2CC2)n1 [Example 119]
59 | < 500 | CC(=O)Nc1cc(C(=O)N[C@@H]2CCN(c3ccc(C(F)(F)F)cc3)C2)ccn1 [Example 120]
60 | < 500 | O=C(N[C@@H]1CCN(c2ccc(C(F)(F)F)cc2F)C1)c1ccnc(NC(=O)C2CC2)n1 [Example 121]
61 | < 500 | CC(C)C(=O)Nc1cc(C(=O)N[C@@H]2CCN(c3ccc(C(F)(F)F)c(F)c3)C2)ccn1 [Example 123]
62 | < 500 | O=C(N[C@@H]1CCCN(c2ccc(OC(F)(F)F)cc2Cl)C1)c1ccnc(NC(=O)C2CC2)c1 [Example 125]
63 | < 500 | O=C(N[C@@H]1CCCN(c2ccc(OC(F)(F)F)cc2Cl)C1)c1ccnc(NC(=O)C2CC2)n1 [Example 126]
64 | < 500 | CC(C)C(=O)Nc1cc(C(=O)N[C@@H]2CCCN(c3ccc(OC(F)(F)F)cc3Cl)C2)ccn1 [Example 127]
65 | < 500 | Cc1cc(C(=O)N[C@@H]2CCCN(c3ccc(OC(F)(F)F)cc3Cl)C2)cc(NC(=O)C(C)C)n1 [Example 128]
